Results on four compounds are retold here after ChEMBL document CHEMBL1201862, “PubChem BioAssay data set” (2004).

Some test systems named below: UACC-257; HCT-116; MOLT-4; MDA-MB-435; IGROV-1; 786-0; OVCAR-3; HOP-92; NCI-H522; PC-3; HOP-62; RPMI-8226; MCF7; Malme-3M; ACHN; NCI/ADR-RES; U-251; COLO 205; SF-268; MDA-N.
Test in all cases: growth of human tumour cells (NCI), 48 h

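Grown in 96-well plates, cells were treated for 48 hours with each compound at five concentrations. Insufficient inhibition: endpoint recorded as highest concentration tested. GI50 marks 50% less growth.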 Calls of active or inactive are those of the source. Rule as the data show it: active = GI50 up to about 1.1 µM and inactive = higher.

On to `C[C@@H]1OC(=O)C[C@H]2CC(=O)N(CCC3CN(S(=O)(=O)C(F)(F)F)c4ccccc43)C[C@@H]21` (stereo partly specified), for which the GI50 is > 100 µM (inactive) with UACC-257; > 100 µM (inactive) in the assay on HCT-116; > 100 µM (inactive) in the assay on MOLT-4; > 100 µM (inactive) with MDA-MB-435; 69.7 µM (inactive) with IGROV-1; > 100 µM (inactive) in the assay with 786-0. The GI50 with OVCAR-3, in the assay with HOP-92, in the assay with NCI-H522, in the assay on PC-3, in the assay on HOP-62 and in the assay on RPMI-8226 was > 100 µM (inactive) throughout. Moreover, the GI50 in the assay on MCF7 was > 100 µM (inactive); with Malme-3M, 82.4 µM (inactive); with ACHN, > 100 µM (inactive); in the assay on NCI/ADR-RES, > 100 µM (inactive); in the assay on U-251 it was > 100 µM (inactive); in the assay with COLO 205, > 100 µM (inactive).

For the compound `C=CC[C@@]1(C(=O)OC)[C@H](Sc2ccccc2)C1(C)C`, the GI50 in the assay on UACC-257 is 34 µM (inactive); with HCT-116, 23.6 µM (inactive); in the assay on MOLT-4, 14.4 µM (inactive); in the assay with MDA-MB-435, 30.9 µM (inactive); in the assay on IGROV-1, 26.9 µM (inactive); with 786-0, 33.4 µM (inactive). Moreover, the GI50 with OVCAR-3 is 44.3 µM (inactive); in the assay on HOP-92, 13.8 µM (inactive); in the assay with NCI-H522 it was 30.5 µM (inactive); in the assay on PC-3, 47.3 µM (inactive); in the assay with HOP-62, > 100 µM (inactive); in the assay with RPMI-8226, 10.7 µM (inactive). Further, the GI50 in the assay on MCF7 is 25.9 µM (inactive); in the assay with Malme-3M, 29.4 µM (inactive); in the assay on ACHN, > 100 µM (inactive); with SF-268, 85.5 µM (inactive); with NCI/ADR-RES it was 44.9 µM (inactive); in the assay with U-251, 49.2 µM (inactive). Moreover, the GI50 with COLO 205 is 33.3 µM (inactive).

Turning to `O=C1c2ccccc2-c2nc(/C=C/c3ccccc3)cc3c2c1nc1ccccc13`, the GI50 with UACC-257 was 89.5 µM (inactive); in the assay on HCT-116 it was 17.4 µM (inactive); with MOLT-4, 23.6 µM (inactive); in the assay on MDA-MB-435 it was 13.9 µM (inactive); in the assay with IGROV-1, 20.4 µM (inactive); in the assay on 786-0 it was 30.5 µM (inactive). The GI50 in the assay with OVCAR-3 was 0.265 µM (active); with HOP-92 it was 26.5 µM (inactive); with NCI-H522 it was 10.3 µM (inactive); with PC-3 it was 4.56 µM (inactive); in the assay with HOP-62, 16.3 µM (inactive); in the assay with RPMI-8226, 15.1 µM (inactive). Also, the GI50 was 19.1 µM (inactive) in the assay on MCF7; 26.4 µM (inactive) with ACHN; 65 µM (inactive) in the assay on SF-268; 33.8 µM (inactive) with NCI/ADR-RES; 17.7 µM (inactive) with U-251; 20.5 µM (inactive) in the assay with COLO 205.

On to `CCN(CC)CCNc1ccc2nnn3c4ccc(OCCN(CC)CC)cc4c(=O)c1c23`, for which the GI50 was 66.5 µM (inactive) in the assay on MDA-N; > 100 µM (inactive) with UACC-257; 30 µM (inactive) in the assay on HCT-116; 6.73 µM (inactive) with MOLT-4; 49.5 µM (inactive) with MDA-MB-435; 21.6 µM (inactive) in the assay on 786-0. In addition, the GI50 in the assay on HOP-92 was 51.9 µM (inactive); with NCI-H522 it was 18.8 µM (inactive); with HOP-62, 19.4 µM (inactive); in the assay with RPMI-8226, 26.8 µM (inactive); with MCF7, 33.6 µM (inactive); in the assay with ACHN, 65.2 µM (inactive). Moreover, the GI50 in the assay on SF-268 was 54.1 µM (inactive); with NCI/ADR-RES, 57.7 µM (inactive); in the assay with U-251, 60.3 µM (inactive); in the assay with COLO 205, 30.6 µM (inactive).
